Laboratory results taken from PubChem BioAssay AID330 (DTP/NCI, 2004).
Several values for one entry are separate records, joined by “and”; a condition that tells them apart may be missing. Equal values may be shown once. Inconclusive results and toxic doses are left out. How the source made its calls: active means survival T/C of 150% or more; inactive means T/C below 125% in these data.

Test system: P388 leukemia ip, CD2F1 mice, survival T/C
Experiment: NCI In Vivo Anticancer Drug Screen. Data for tumor model P388 Leukemia (intraperitoneal) in CD2F1 (CDF1) mice
Conditions: endpoint: median survival time, higher = longer survival
Method in brief: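 Mice carrying the transplanted tumor received test compound or vehicle. Survival was recorded in each group, and the value is the treated-group measurement divided by that of the vehicle-treated control group.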

[1] = dose: 12.5 mg/kg/injection, schedule: Q01DX005 (ip), vehicle: Klucel (hydroxypropylcellulose) (HPC)
[2] = dose: 25.0 mg/kg/injection, schedule: Q01DX005 (ip), vehicle: Klucel (hydroxypropylcellulose) (HPC)
[3] = dose: 50.0 mg/kg/injection, schedule: Q01DX005 (ip), vehicle: Klucel (hydroxypropylcellulose) (HPC)
[4] = dose: 100.0 mg/kg/injection, schedule: Q01DX005 (ip), vehicle: Klucel (hydroxypropylcellulose) (HPC)
[5] = dose: 200.0 mg/kg/injection, schedule: Q01DX005 (ip), vehicle: Klucel (hydroxypropylcellulose) (HPC)
[6] = dose: 25.0 mg/kg/injection, schedule: Q01DX009 (ip), vehicle: saline with Tween-80
[7] = dose: 50.0 mg/kg/injection, schedule: Q01DX009 (ip), vehicle: saline with Tween-80
[8] = dose: 100.0 mg/kg/injection, schedule: Q01DX009 (ip), vehicle: saline with Tween-80
[9] = dose: 200.0 mg/kg/injection, schedule: Q01DX009 (ip), vehicle: saline with Tween-80

Measured: T/C

CN(C)CCCSc1ccccc1NC1=C(Cl)C(=O)C(Nc2ccccc2SCCCN(C)C)=C(Cl)C1=O
inactive: dose: 6.25 mg/kg/injection, schedule: Q01DX005 (ip), vehicle: Klucel (hydroxypropylcellulose) (HPC) 100 % of control | [1] 106 % of control | [2] 98 % of control | [3] 106 % of control | [4] 108 % of control | [5] 104 % of control

COc1cc2c(c(OC)c1OC)C1=NNC(=O)C1(C)CC2 (centres undefined)
inactive: dose: 100.0 mg/kg/injection, schedule: Q04DX003 (ip), vehicle: Klucel (hydroxypropylcellulose) (HPC) 91 % of control | dose: 200.0 mg/kg/injection, schedule: Q04DX003 (ip), vehicle: Klucel (hydroxypropylcellulose) (HPC) 88 % of control | dose: 400.0 mg/kg/injection, schedule: Q04DX003 (ip), vehicle: Klucel (hydroxypropylcellulose) (HPC) 92 % of control

CNC(=S)NNc1nnc(NNC(=S)NC)c2ccccc12
inactive: dose: 50.0 mg/kg/injection, schedule: Q01DX009 (ip), vehicle: saline 94 % of control | dose: 100.0 mg/kg/injection, schedule: Q01DX009 (ip), vehicle: saline 97 % of control | dose: 200.0 mg/kg/injection, schedule: Q01DX009 (ip), vehicle: saline 102 % of control

Nc1nc(N)c2nc3c(nc2n1)CCCCCCCCCC3
inactive: dose: 12.5 mg/kg/injection, schedule: Q01DX009 (ip), vehicle: saline with Tween-80 92 % of control | [6] 92 % of control | [7] 89 % of control | [8] 90 % of control

COc1ccc(S(=O)(=O)N/N=C/c2cc(=O)[nH]c(=O)[nH]2)cc1
inactive: dose: 25.0 mg/kg/injection, schedule: Q01DX005 (ip), vehicle: saline with Tween-80 100 % of control | dose: 50.0 mg/kg/injection, schedule: Q01DX005 (ip), vehicle: saline with Tween-80 101 % of control | dose: 100.0 mg/kg/injection, schedule: Q01DX005 (ip), vehicle: saline with Tween-80 105 % of control | dose: 200.0 mg/kg/injection, schedule: Q01DX005 (ip), vehicle: saline with Tween-80 118 % of control

CCNC(=O)c1nnn2c1nc(N)c1cc(Cl)ccc12
inactive: [1] 96 % of control | [2] 96 % of control | [3] 95 % of control | [4] 94 % of control | [5] 88 % of control

CN1C(=O)Nc2ccc(Cl)cc2C1(O)c1ccccc1 (centres undefined)
inactive: [6] 90 % of control | [7] 86 % of control | [8] 92 % of control | [9] 91 % of control

CC(=O)OCC1OC(Sc2nnc(-c3ccccc3)c(-c3ccccc3)n2)C(OC(C)=O)C(OC(C)=O)C1OC(C)=O (centres undefined)
inactive: [7] 107 % of control | [8] 98 % of control | [9] 100 % of control

CCOC(=O)C(C)(NC(=O)c1ccccc1)C(=O)OCC
inactive: dose: 60.0 mg/kg/injection, schedule: Q01DX005 (ip), vehicle: saline 101 % of control and 105 % of control | dose: 120.0 mg/kg/injection, schedule: Q01DX005 (ip), vehicle: saline 109 % of control | dose: 240.0 mg/kg/injection, schedule: Q01DX005 (ip), vehicle: saline 100 % of control and 97 % of control

CN(C)c1nc(Cl)c2cc(Cl)ccc2n1
inactive: dose: 60.0 mg/kg/injection, schedule: Q01DX005 (ip), vehicle: Klucel (hydroxypropylcellulose) (HPC) 100 % of control | dose: 120.0 mg/kg/injection, schedule: Q01DX005 (ip), vehicle: Klucel (hydroxypropylcellulose) (HPC) 99 % of control

C[C@]12CC[C@H]3[C@@H](CC[C@]4(O)C[C@@H](O)CC[C@]34CO)[C@@]1(O)CC[C@@H]2C1=CC(=O)OC1
inactive: dose: 25.0 mg/kg/injection, schedule: Q04DX003 (ip), vehicle: suspension in saline 97 % of control | dose: 50.0 mg/kg/injection, schedule: Q04DX003 (ip), vehicle: suspension in saline 98 % of control | dose: 100.0 mg/kg/injection, schedule: Q04DX003 (ip), vehicle: suspension in saline 97 % of control | dose: 200.0 mg/kg/injection, schedule: Q04DX003 (ip), vehicle: suspension in saline 100 % of control

CCN(CC)c1cc(-c2ccccc2)oc(=O)c1Cl
inactive: [7] 100 % of control | [8] 93 % of control | [9] 97 % of control

Cc1c2cc[n+](C)cc2c(C)c2c1[nH]c1ccc(O)c(-[n+]3ccccc3)c12
inactive: dose: 2.5 mg/kg/injection, schedule: Q04DX003 (ip), vehicle: saline 113 % of control | dose: 5.0 mg/kg/injection, schedule: Q04DX003 (ip), vehicle: saline 111 % of control

Cn1c(O)c2c(c1O)C(=Nc1ccccc1)c1ccccc1C2=O
inactive: [3] 86 % of control | [4] 89 % of control | [5] 94 % of control
